Laboratory results as given in PubChem BioAssay AID1963441 (Molecular Pharmacology Branch, DTP, NCI, 2024).
“And” between values parts separate entries of the source, which are not always exact repeats. Identical values can stand only once. Blank lines part the entries; values can stand above or below the molecule they belong to.

Test system: NCI-H1876 complex spheroid growth, % test/control
Assay: Anticancer human tumor NCI-H1876 cell line growth inhibition [Asc];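 further: compound exposure lasted 7 days starting three days after seeding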;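 on viability, T/C: 100% = DMSO vehicle control wells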
Details: for viability, T/C: stronger effect = lower value
Method in brief: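 Tumor cells were grown as complex spheroids with human endothelial cells (HUVEC) and human mesenchymal stem cells as stroma. Agents were tested alone and in combination, in half-log steps down from the clinical Cmax, or from 10 microM where Cmax was unknown.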

[1] = curve of first compound, second compound 0.0316 µM
[2] = curve of first compound, second compound 0.1 µM
[3] = curve of first compound, second compound 0.316 µM
[4] = curve of first compound, second compound 1 µM

IC50 [1]: > 1000 nM
IC50 [2]: > 1000 nM
IC50 [3]: > 1000 nM
IC50 [4]: > 1000 nM
IC50 (curve of first compound, second compound 3.16 µM): > 1000 nM
IC50 (curve of first compound, second compound 10 µM): > 1000 nM
SMILES: CNC(C)C(=O)NC1CN(S(=O)(=O)c2cccc(S(=O)(=O)N3CCC4CCC(C(=O)NC(c5ccccc5)c5ccccc5)N4C(=O)C(NC(=O)C(C)NC)C3)c2)CCC2CCC(C(=O)NC(c3ccccc3)c3ccccc3)N2C1=O (stereo unspecified) + Cc1c(S(C)(=O)=O)c(-c2cc(F)cc(N3CCN(c4ccc(NS(=O)(=O)c5ccc(NC(CCN6CCC(C(=O)OCCCP(=O)(O)O)CC6)CSc6ccccc6)c(S(=O)(=O)C(F)(F)F)c5)cc4)CC3)c2)c(-c2ccc(Cl)cc2)n1C(C)C
viability, T/C (second compound 0.0316 µM, first compound 0.00316 µM): 95.1%
viability, T/C (second compound 0.0316 µM, first compound 0.01 µM): 96.4%
viability, T/C (second compound 0.0316 µM, first compound 0.0316 µM): 98%
viability, T/C (second compound 0.0316 µM, first compound 0.1 µM): 97.8%
viability, T/C (second compound 0.0316 µM, first compound 0.316 µM): 103%
viability, T/C (second compound 0.0316 µM, first compound 1 µM): 103%
viability, T/C (second compound 0.1 µM, first compound 0.00316 µM): 91.3%
viability, T/C (second compound 0.1 µM, first compound 0.01 µM): 96.2%
viability, T/C (second compound 0.1 µM, first compound 0.0316 µM): 95%
viability, T/C (second compound 0.1 µM, first compound 0.1 µM): 98.8%
viability, T/C (second compound 0.1 µM, first compound 0.316 µM): 105%
viability, T/C (second compound 0.1 µM, first compound 1 µM): 98.7%
viability, T/C (second compound 0.316 µM, first compound 0.00316 µM): 101%
viability, T/C (second compound 0.316 µM, first compound 0.01 µM): 102%
viability, T/C (second compound 0.316 µM, first compound 0.0316 µM): 97.2%
viability, T/C (second compound 0.316 µM, first compound 0.1 µM): 97.3%
viability, T/C (second compound 0.316 µM, first compound 0.316 µM): 103%
viability, T/C (second compound 0.316 µM, first compound 1 µM): 104%
viability, T/C (second compound 1 µM, first compound 0.00316 µM): 94%
viability, T/C (second compound 1 µM, first compound 0.01 µM): 91.6%
viability, T/C (second compound 1 µM, first compound 0.0316 µM): 91.6%
viability, T/C (second compound 1 µM, first compound 0.1 µM): 100%
viability, T/C (second compound 1 µM, first compound 0.316 µM): 112%
viability, T/C (second compound 1 µM, first compound 1 µM): 92.7%
viability, T/C (second compound 3.16 µM, first compound 0.00316 µM): 99.9%
viability, T/C (second compound 3.16 µM, first compound 0.01 µM): 87.2%
viability, T/C (second compound 3.16 µM, first compound 0.0316 µM): 96.1%
viability, T/C (second compound 3.16 µM, first compound 0.1 µM): 88.1%
viability, T/C (second compound 3.16 µM, first compound 0.316 µM): 101%
viability, T/C (second compound 3.16 µM, first compound 1 µM): 91.8%
viability, T/C (second compound 10 µM, first compound 0.00316 µM): 97.4%
viability, T/C (second compound 10 µM, first compound 0.01 µM): 97.4%
viability, T/C (second compound 10 µM, first compound 0.0316 µM): 88.3%
viability, T/C (second compound 10 µM, first compound 0.1 µM): 110%
viability, T/C (second compound 10 µM, first compound 0.316 µM): 102%
viability, T/C (second compound 10 µM, first compound 1 µM): 101%

IC50 (curve of compound): > 100 nM
SMILES: NC1CCC(NC2CC2c2ccccc2)CC1 (stereo unspecified)
viability, T/C (compound 0.000316 µM): 121% and 119% (2×)
viability, T/C (compound 0.001 µM): 108% and 95.7% and 118%
viability, T/C (compound 0.00316 µM): 118% and 112% and 134%
viability, T/C (compound 0.01 µM): 116% and 106% and 120%
viability, T/C (compound 0.0316 µM): 116% and 112% and 131%
viability, T/C (compound 0.1 µM): 107% and 112% and 136%

IC50 (curve of first compound, second compound 0.00316 µM): > 300 nM
IC50 (curve of first compound, second compound 0.01 µM): > 300 nM
IC50 [1]: > 300 nM
IC50 [2]: > 300 nM
IC50 [3]: > 300 nM
IC50 [4]: > 300 nM
SMILES: NC(=O)C(=Cn1cnc(-c2cc(C(F)(F)F)cc(C(F)(F)F)c2)n1)c1cncnc1 + CNC(C)C(=O)NC1CN(S(=O)(=O)c2cccc(S(=O)(=O)N3CCC4CCC(C(=O)NC(c5ccccc5)c5ccccc5)N4C(=O)C(NC(=O)C(C)NC)C3)c2)CCC2CCC(C(=O)NC(c3ccccc3)c3ccccc3)N2C1=O
viability, T/C (second compound 0.00316 µM, first compound 0.000949 µM): 110%
viability, T/C (second compound 0.00316 µM, first compound 0.003 µM): 92.8%
viability, T/C (second compound 0.00316 µM, first compound 0.00949 µM): 91.9%
viability, T/C (second compound 0.00316 µM, first compound 0.03 µM): 83.8%
viability, T/C (second compound 0.00316 µM, first compound 0.0949 µM): 100%
viability, T/C (second compound 0.00316 µM, first compound 0.3 µM): 105%
viability, T/C (second compound 0.01 µM, first compound 0.000949 µM): 93.4%
viability, T/C (second compound 0.01 µM, first compound 0.003 µM): 90.6%
viability, T/C (second compound 0.01 µM, first compound 0.00949 µM): 96.6%
viability, T/C (second compound 0.01 µM, first compound 0.03 µM): 92.4%
viability, T/C (second compound 0.01 µM, first compound 0.0949 µM): 108%
viability, T/C (second compound 0.01 µM, first compound 0.3 µM): 98.2%
viability, T/C (second compound 0.0316 µM, first compound 0.000949 µM): 91.4%
viability, T/C (second compound 0.0316 µM, first compound 0.003 µM): 102%
viability, T/C (second compound 0.0316 µM, first compound 0.00949 µM): 92.4%
viability, T/C (second compound 0.0316 µM, first compound 0.03 µM): 92.5%
viability, T/C (second compound 0.0316 µM, first compound 0.0949 µM): 104%
viability, T/C (second compound 0.0316 µM, first compound 0.3 µM): 94%
viability, T/C (second compound 0.1 µM, first compound 0.000949 µM): 86.2%
viability, T/C (second compound 0.1 µM, first compound 0.003 µM): 93.9%
viability, T/C (second compound 0.1 µM, first compound 0.00949 µM): 93.5%
viability, T/C (second compound 0.1 µM, first compound 0.03 µM): 104%
viability, T/C (second compound 0.1 µM, first compound 0.0949 µM): 102%
viability, T/C (second compound 0.1 µM, first compound 0.3 µM): 103%
viability, T/C (second compound 0.316 µM, first compound 0.000949 µM): 95.6%
viability, T/C (second compound 0.316 µM, first compound 0.003 µM): 96.9%
viability, T/C (second compound 0.316 µM, first compound 0.00949 µM): 88.6%
viability, T/C (second compound 0.316 µM, first compound 0.03 µM): 90.1%
viability, T/C (second compound 0.316 µM, first compound 0.0949 µM): 100%
viability, T/C (second compound 0.316 µM, first compound 0.3 µM): 91.5%
viability, T/C (second compound 1 µM, first compound 0.000949 µM): 96.8%
viability, T/C (second compound 1 µM, first compound 0.003 µM): 93.6%
viability, T/C (second compound 1 µM, first compound 0.00949 µM): 102%
viability, T/C (second compound 1 µM, first compound 0.03 µM): 95.9%
viability, T/C (second compound 1 µM, first compound 0.0949 µM): 104%
viability, T/C (second compound 1 µM, first compound 0.3 µM): 86.3%

IC50 (compound alone, run of 11/07/2022): > 3000 nM
IC50 (curve of compound): > 3000 nM
SMILES: CCN1C(C(=O)NC23CCC(C(=O)O)(CC2)CC3)C(c2cccc(Cl)c2F)C2(C(=O)Nc3cc(Cl)ccc32)C12CCCCC2 (stereo unspecified)
viability, T/C (compound 0.00949 µM): 109% [middle of 9 runs]
viability, T/C (compound 0.0949 µM): 103% [middle of 9 runs]
viability, T/C (compound 3 µM): 107% [middle of 9 runs]
